Laboratory results published in the supplement of paper PMC10307832.

What was measured:
Experiment in all cases: relative viability (nuclei count vs DMSO), 5 days (fraction); higher = more cells survive
[1] = compound: CN[C@@H]1C[C@H]2O[C@@](C)([C@@H]1OC)n1c3ccccc3c3c4c(c5c6ccccc6n2c5c31)C(=O)NC4 [Staurosporine] + O=C(CCCCCCC(=O)Nc1ccccc1)NO [Vorinostat] (partner 1 µM)
Outline: (§1)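 Cells from lung cancer lines were seeded into 1536-well plates and, one day later, dosed by pin tool. Treatments were either a single drug or a fixed dose of an anchor drug with five library-drug doses (not always all listed) in √10 steps. After 5 days, nuclei were stained in a one-step fixation (final 0.05% Triton X-100, 1% formaldehyde, 1 ug/ml Hoechst) and counted on 4× images, and relative viability is the treated-to-vehicle nuclei ratio, as the median of duplicate plates.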

[2] = compound: O=c1[nH]cc(F)c(=O)[nH]1 [5-Fluorouracil] + Cc1cc(Nc2cc(N3CCN(C)CC3)nc(Sc3ccc(NC(=O)C4CC4)cc3)n2)n[nH]1 [Tozasertib] (partner 0.1 µM)
Outline: as §1

[3] = compound: O=c1[nH]cc(F)c(=O)[nH]1 [5-Fluorouracil] + Cc1nc(Nc2ncc(C(=O)Nc3c(C)cccc3Cl)s2)cc(N2CCN(CCO)CC2)n1 [Dasatinib] (partner 0.075 µM)
Outline: as §1

[4] = compound: CN[C@@H]1C[C@H]2O[C@@](C)([C@@H]1OC)n1c3ccccc3c3c4c(c5c6ccccc6n2c5c31)C(=O)NC4 [Staurosporine] + Cc1nc(NC(=O)N2CCC[C@H]2C(N)=O)sc1-c1ccnc(C(C)(C)C(F)(F)F)c1 [Alpelisib] (partner 2 µM)
Outline: as §1

Cell Line | relative viability ([1]; first compound 0.005 µM) | relative viability ([1]; first compound 0.01581 µM) | relative viability ([1]; first compound 0.05 µM) | relative viability ([1]; first compound 0.1581 µM) | relative viability ([2]; first compound 0.02 µM) | relative viability ([2]; first compound 0.2 µM) | relative viability ([2]; first compound 0.6325 µM) | relative viability ([2]; first compound 2 µM) | relative viability ([3]; first compound 0.02 µM) | relative viability ([3]; first compound 0.2 µM) | relative viability ([3]; first compound 0.6325 µM) | relative viability ([3]; first compound 2 µM) | relative viability ([4]; first compound 0.005 µM) | relative viability ([4]; first compound 0.01581 µM) | relative viability ([4]; first compound 0.05 µM) | relative viability ([4]; first compound 0.1581 µM) | relative viability ([4]; first compound 0.5 µM) | relative viability ([1]; first compound 0.5 µM)
NCI-H838 | 0.36 | 0.217 | 0.142 | 0.171 | 0.267 | 0.251 | 0.243 | 0.183 | 0.293 | 0.291 | 0.243 | 0.27 | 0.274 | 0.208 | 0.19 | 0.246 | 0.114 | –
NCI-H2342 | 0.987 | 0.74 | 0.444 | 0.34 | 0.484 | 0.471 | 0.626 | 0.443 | 0.305 | 0.343 | 0.301 | 0.293 | – | – | – | – | – | 0.3
EMC-BAC-2 | 0.103 | – | 0.14 | 0.166 | 0.293 | 0.292 | 0.33 | 0.287 | 0.343 | 0.332 | 0.368 | 0.35 | 0.34 | 0.23 | 0.0952 | 0.131 | 0.108 | 0.266
NCI-H1355 | 0.597 | 0.227 | 0.235 | 0.138 | 0.529 | 0.366 | 0.258 | 0.226 | 0.824 | 0.58 | 0.283 | 0.234 | 0.718 | 0.422 | 0.21 | 0.215 | 0.203 | 0.111
COR-L23 | 0.159 | 0.147 | 0.0727 | 0.0709 | – | – | – | – | 0.529 | 0.467 | 0.254 | 0.186 | 0.204 | 0.226 | 0.143 | 0.0629 | 0.0497 | 0.0639
HCC-44 | 1.1 | – | 0.517 | 0.27 | 1.19 | 0.844 | 0.739 | 0.291 | – | – | – | – | 0.441 | 0.167 | 0.106 | 0.11 | 0.0846 | 0.2
NCI-H1299 | – | – | – | – | – | – | – | – | – | – | – | – | 1.13 | 0.874 | 0.237 | 0.205 | 0.196 | –
ChaGo-K-1 | 0.791 | – | 0.359 | 0.147 | – | – | – | – | 0.558 | 0.595 | 0.386 | 0.39 | – | – | – | – | – | 0.144
SW 900 | 0.294 | 0.15 | 0.171 | 0.146 | 0.595 | 0.644 | 0.602 | 0.421 | 0.507 | 0.539 | 0.548 | 0.577 | – | – | – | – | – | 0.0929
NCI-H1792 | – | – | – | – | – | – | – | – | 0.929 | 0.714 | 0.277 | 0.196 | 0.789 | 0.499 | 0.187 | 0.14 | 0.117 | –
NCI-H1703 | – | – | – | – | – | – | – | – | – | – | – | – | 0.219 | 0.167 | 0.142 | 0.139 | 0.102 | –
EBC-1 | – | – | – | – | – | – | – | – | – | – | – | – | 0.367 | 0.307 | 0.151 | 0.157 | 0.145 | –
EKVX | 0.597 | 0.236 | 0.19 | 0.248 | 0.35 | 0.172 | 0.147 | 0.131 | – | – | – | – | 0.729 | 0.409 | 0.177 | 0.214 | 0.122 | 0.181
IA-LM | 0.732 | 0.312 | 0.0781 | 0.0987 | – | – | – | – | – | – | – | – | 0.577 | – | 0.281 | 0.211 | 0.0757 | 0.105
